Data reported in patent publication US20120156146A1, “Compositions and Methods for Improving the Appearance of Facial Texture” (priority 2010, published 2012).

How the values were obtained:
[1] = system: textured facial skin (upper cheek area); experiment: In vivo facial texture test (Texture Area Fraction, split face, vehicle controlled); design: species or system human; details: vehicle+5% Hexyldecanol, 0.5 g per side of face twice daily, topical, 8 weeks, 330 subjects
Method: A 9 week in vivo study was conducted using a round robin, vehicle controlled, split face design including a 1 week normalization period with 330 subjects.
Treatment Regimen—The regimen begins with a one week washout period. […]
Images of the facial treatment sites are captured at baseline (week 0), and after 4 and 8 weeks of treatment and analyzed for changes to facial texture. […]
The region of interest (ROI), in this case the upper cheek area, was marked manually based on 12 predefined facial landmarks around the cheek—for example, corners of the eye, bridge of the nose, corners of the mouth. The degree of textured skin in the ROI were quantified objectively using image analysis algorithms based on an Optimus software platform, which automatically locates each surface feature and quantifies the total number, length and area of facial features shorter than 5 mm and less than 0.16 mm wide, known magnification used to convert pixel data to actual length and area data. […]

[2] = system: HAS-2 gene (Hyaluronic Acid Synthase-2 gene); experiment: Hyaluronic Acid (HA) Synthase expression, GeneChip microarray in keratinocyte culture; format: cell-based; details: human telomerized keratinocytes, 10 micro molar, 6 hours exposure, six Affymetrix GeneChips, p-value=0.0366
Method: Individual experiments (referred to as batches) are generally comprised of 60 Affymetrix GeneChips® (referred to as “instances”) containing 6 vehicle control samples, 2 positive control samples and 52 individual test material samples. Duplication of test materials is performed across batches. In vitro testing is performed in 6-well plates to provide sufficient RNA for GeneChip® analysis (2-4 ug total RNA yield/well). Human telomerized keratinocytes are grown in EpiLife® media with 1× Human Keratinocyte Growth Supplement (Invitrogen) on collagen I coated cell culture flasks and plates (Becton Dickinson). Cells are seeded into 6-well plates at 20,000 cells/cm2 24 hours before chemical exposure. At t=−24 hours cells are trypsinized from T-75 flasks and plated into 6-well plates in basal growth medium. At t=0 media is removed and replaced with the appropriate dosing solution as per the experimental design. Dosing solutions are prepared the previous day in sterile 4 ml Falcon snap cap tubes. After 6 hours of chemical exposure cells are viewed and imaged. Cells are then lysed with 350 ul/well of RLT buffer containing β-mercaptoethanol (Qiagen), transferred to a 96-well plate, and stored at −20° C. […]
Data quality was determined using a variety of statistical measures, including t-tests, scatter biplots, and principal components analysis, depending upon the source and character of the data. […]

In the case of `CCCCCCCCC(CO)CCCCCC` (centres unmarked) [Hexyldecanol, 2-hexyldecan-1-ol], the “Texture Area Fraction reduction versus vehicle control” value [1] is reported as “significantly (p<=0.10) reducing Texture Area Fraction better than the control” and the “average fold change of transcriptional expression level of HAS-2 probe set IDs” value [2] is reported as 1.336 fold change.
